IC50, Ratio and MNTC data for 8 compounds are collected here from ChEMBL document CHEMBL1152061, “New cytostatic agents obtained by molecular topology” (Bioorg Med Chem Lett, 1996).

The test system of assay [1] is HepG2. Nature of the assay: Compound was evaluated for the inhibition of cell proliferation of human hepatocellular carcinoma, HepG2 (ATCC HB8065). The format is functional, cell-based.
For assay [2], the system named is HeLa. Kind of assay: Compound was evaluated for the inhibition of cell proliferation of human cervix epithelioid carcinoma, HeLa (ATCC CCL2). The format is functional, cell-based.
Assay [3] in a line: Compound was evaluated for the inhibition of cell proliferation of human ocular lens epithelium (CECH). The settings on record: Lens of camera-type eye. It counts as functional, tissue-based.
A short description of assay [4]: Cytotoxicity ratio for Human hepatocellular carcinoma, HepG2 (ATCC HB 8065) cells. It counts as functional.
The subject of assay [5] is HepG2. Kind of assay: Compound was evaluated for the cytotoxicity against human hepatocellular carcinoma, HepG2 (ATCC HB8065). The format is functional.
Assay [6] can be described thus: Compound was evaluated for the cytotoxicity against human ocular lens epithelium (CECH). It counts as functional, Lens of camera-type eye.
Assay [7] has as its system HeLa. Nature of the assay: Compound was evaluated for the cytotoxicity against human cervix epithelioid carcinoma, HeLa (ATCC CCL2). It counts as functional.
The subject of assay [8] is HeLa. Nature of the assay: Compound was evaluated for the cytotoxicity against human cervix epithelioid carcinoma, HeLa (ATCC CCL2). The format is functional.

A word on the IC50: it is the point on the concentration scale where inhibition reaches its midpoint. As for `CN(C)[C@@H]1C(O)=C(C(N)=O)C(=O)[C@@]2(O)C(O)=C3C(=O)c4c(O)cccc4[C@@](C)(O)[C@H]3C[C@@H]12` [TETRACYCLINE], the IC50 with HepG2 [1] was found to be 128 µM; in the assay on HeLa [2], 51 µM; in assay [3] it was 207 µM. Besides, the Ratio in assay [4] stood at 1.62.
`CNC(C)C1CCC(N)C(OC2C(N)CC(N)C(OC3OCC(C)(O)C(NC)C3O)C2O)O1.CNC1C(O)C(OC2C(N)CC(N)C(OC3OC(C(C)N)CCC3N)C2O)OCC1(C)O.CNC1C(O)C(OC2C(N)CC(N)C(OC3OC(CN)CCC3N)C2O)OCC1(C)O.O=S(=O)(O)O` (stereo unspecified) [GENTAMICIN MIXTURE]: the figures for the MNTC (in the assay with HepG2 [5]; in assay [6]; with HeLa [7]) were 210 µM, 210 µM and above 1050 µM, respectively.
`Cc1c(C(=O)O)c(O)cc2c1C(=O)c1c(O)c([C@@H]3O[C@H](CO)[C@@H](O)[C@H](O)[C@H]3O)c(O)c(O)c1C2=O` [CARMINIC ACID]: the figures for the IC50 (in the assay with HepG2 [1]; with HeLa [2]; in assay [3]) were 1770 µM, 3730 µM and 1650 µM, respectively. Besides, the MNTC is 2500 µM in the assay with HepG2 [5], 2200 µM in assay [6] and above 5000 µM in the assay on HeLa [7]. In addition, the Ratio in assay [4] was determined as 0.93.
For `C[C@H]1c2cccc(O)c2C(=O)C2=C(O)[C@]3(O)C(=O)C(C(N)=O)=C(O)[C@@H](N(C)C)[C@@H]3[C@@H](O)[C@@H]21.O` [DOXYCYCLINE], the half-inhibitory concentration (IC50) was determined as 53 µM in the assay with HepG2 [1], 30 µM in the assay on HeLa [2] and 35 µM in assay [3]. Further, the values for the MNTC (in the assay on HepG2 [5]; in assay [6]; in the assay with HeLa [7]) were 60 µM, 60 µM and 40 µM, respectively. Also, the Ratio in assay [4] was determined as 0.66.
`CO[C@@]12[C@H](COC(N)=O)C3=C(C(=O)C(C)=C(N)C3=O)N1C[C@@H]1N[C@@H]12` [MITOMYCIN]: the IC50 with HepG2 [1] was 0.27 µM; in assay [3] it was 0.09 µM. Further, the MNTC was 0.7 µM in the assay with HepG2 [5] and 2 µM with HeLa [7]. Besides, the Ratio in assay [4] was determined as 0.33.
For `O=c1[nH]cc(F)c(=O)[nH]1` [FLUOROURACIL] the same measures were 85 µM, 8 µM, 100 µM, 40 µM and 0.09.
Turning to `CCC[C@@H]1C[C@@H](C(=O)N[C@@H]([C@H]2O[C@H](SC)[C@H](O)[C@@H](O)[C@H]2O)[C@H](C)Cl)N(C)C1` [CLINDAMYCIN], the MNTC with HepG2 [5] is above 5000 µM; in assay [6] it was 1000 µM; in the assay with HeLa [8] it was 1000 µM.
In the case of `CCn1cc(C(=O)O)c(=O)c2cnc(N3CCCC3)nc21` [PIROMIDIC ACID], the values for the IC50 (in the assay with HepG2 [1]; with HeLa [2]; in assay [3]) were 110 µM, 97 µM and 184 µM, respectively. Also, the MNTC in the assay on HepG2 [5] amounted to 120 µM; in assay [6] it was 250 µM; with HeLa [7] it was 100 µM. Further, the Ratio in assay [4] stood at 1.67.
